Among the data in PubChem BioAssay (NCI) are TGI values, retold here.

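Tested at 5 concentrations; 48 h exposure; 96-well plates; endpoints linearly interpolated, else capped at highest concentration. At the TGI there is no net growth.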

Test systems include OVCAR-3 ovarian; MOLT-4 leukemia; U251 CNS; OVCAR-8 ovarian; CAKI-1 renal; HCC-2998 colon; OVCAR-4 ovarian; NCI-H522 lung; UO-31 renal.
What all share (assay): inhibition of tumour cell growth, NCI panel, 48 h

For the compound `Cc1c(C(=O)O)n(C)c(=O)n(C)c1=O`, the TGI in the assay with OVCAR-3 ovarian, with MOLT-4 leukemia, in the assay on U251 CNS, with OVCAR-8 ovarian, with CAKI-1 renal and with HCC-2998 colon was more than 100 µM in each case. Besides, the TGI in the assay on OVCAR-4 ovarian, with NCI-H522 lung and with UO-31 renal was more than 100 µM in each case.
Turning to `COc1ccccc1NC(=O)C1=C(C)NC(C)=C(C(=O)Nc2ccccc2OC)C1/C=C/c1ccccc1`, the TGI in the assay on OVCAR-3 ovarian, in the assay on MOLT-4 leukemia, in the assay with U251 CNS, in the assay with OVCAR-8 ovarian, in the assay on CAKI-1 renal and with HCC-2998 colon was more than 100 µM each time. Further, the TGI in the assay with OVCAR-4 ovarian and in the assay on UO-31 renal was more than 100 µM in each case.
As to `Cc1cccc(C(=O)O)c1C(=O)c1cccc2ccccc12`, the TGI with OVCAR-3 ovarian, in the assay on MOLT-4 leukemia, with U251 CNS, in the assay with OVCAR-8 ovarian, with CAKI-1 renal and in the assay on HCC-2998 colon was more than 100 µM in each case. Also, the TGI in the assay on OVCAR-4 ovarian, in the assay with NCI-H522 lung and with UO-31 renal was more than 100 µM each time.
As to `Cc1ccc(NC(=O)C(=O)CC(=O)c2c(C)n([O-])c3ccccc3[n+]2=O)cc1C`, the TGI in the assay on OVCAR-3 ovarian, in the assay with U251 CNS, in the assay with OVCAR-8 ovarian, in the assay on CAKI-1 renal, with HCC-2998 colon and in the assay with OVCAR-4 ovarian was more than 100 µM throughout. For the same compound, the TGI with NCI-H522 lung and in the assay on UO-31 renal was more than 100 µM throughout.
Turning to `CCCCCCCC1(c2ccc(N)cc2)CCC(=O)NC1=O` (stereo unspecified), the TGI with OVCAR-3 ovarian was 81.1 µM; in the assay on MOLT-4 leukemia it was 65.7 µM; in the assay with OVCAR-8 ovarian, more than 100 µM; in the assay on CAKI-1 renal it was more than 100 µM; in the assay on HCC-2998 colon it was more than 100 µM; in the assay with OVCAR-4 ovarian it was more than 100 µM. Besides, the TGI was 78.6 µM with NCI-H522 lung and 74.8 µM in the assay with UO-31 renal.
With `CC(C)c1cccc(C(C)C)c1N1C(=O)C(=O)C(c2nc3ccccc3o2)C(=O)C1=O`, the TGI with OVCAR-3 ovarian, in the assay with U251 CNS, with OVCAR-8 ovarian, in the assay on CAKI-1 renal, in the assay with HCC-2998 colon and in the assay on OVCAR-4 ovarian was more than 100 µM throughout. The TGI with NCI-H522 lung was 50.6 µM; in the assay with UO-31 renal it was more than 100 µM.
As for `Cc1ccc(C)c(N2C(=O)C(=O)C(c3nc4ccccc4o3)C(=O)C2=O)c1`, the TGI in the assay on OVCAR-3 ovarian, in the assay on MOLT-4 leukemia, in the assay with U251 CNS, in the assay with OVCAR-8 ovarian, with CAKI-1 renal and with HCC-2998 colon was more than 100 µM throughout. Moreover, the TGI in the assay with OVCAR-4 ovarian and in the assay on UO-31 renal was more than 100 µM each time.
In the case of `COCCOc1cc(C)cc(/C=C(C)/C=C/C2=C(C)CCCC2(C)C)n1`, the TGI with OVCAR-3 ovarian, in the assay with MOLT-4 leukemia, in the assay with U251 CNS, in the assay with OVCAR-8 ovarian, in the assay on CAKI-1 renal and in the assay with OVCAR-4 ovarian was more than 100 µM in each case. The TGI in the assay with NCI-H522 lung and in the assay on UO-31 renal was more than 100 µM throughout.
As to `N#Cc1ccccc1NC(=O)C(=O)C1NC(=S)NC1=O` (stereo unspecified), the TGI in the assay with OVCAR-3 ovarian, in the assay on MOLT-4 leukemia, in the assay on U251 CNS, with OVCAR-8 ovarian, in the assay on CAKI-1 renal and in the assay with HCC-2998 colon was more than 100 µM in each case. Moreover, the TGI in the assay with OVCAR-4 ovarian was more than 100 µM.
Regarding `Cc1ccc2nc(NC(=O)C(=O)C(C#N)c3ccc(Cl)cc3)sc2c1` (stereo unspecified), the TGI in the assay with OVCAR-3 ovarian, in the assay with U251 CNS, with OVCAR-8 ovarian, in the assay on CAKI-1 renal, with HCC-2998 colon and in the assay on OVCAR-4 ovarian was more than 50 µM each time. This compound showed a TGI with UO-31 renal of more than 50 µM.
Regarding `C/C(CN1C(=O)c2ccccc2C1=O)=N\NS(=O)(=O)c1cccc(C(=O)O)c1`, the TGI with OVCAR-3 ovarian, with MOLT-4 leukemia, with U251 CNS, in the assay on OVCAR-8 ovarian, with CAKI-1 renal and with HCC-2998 colon was more than 100 µM throughout. Also, the TGI in the assay with OVCAR-4 ovarian, in the assay with NCI-H522 lung and in the assay with UO-31 renal was more than 100 µM in each case.
For the compound `CCN(CC)CC1CCCCN1CC(=O)N1CC(C)C(=O)Nc2ccccc21` (stereo unspecified), the TGI with OVCAR-3 ovarian, in the assay on MOLT-4 leukemia, with U251 CNS, in the assay on CAKI-1 renal, in the assay with HCC-2998 colon and with OVCAR-4 ovarian was more than 100 µM throughout. For the same compound, in the assay on UO-31 renal, the TGI is more than 100 µM.
Regarding `CCCCCC(=O)Nc1nc2nc[nH]c2c(=O)[nH]1`, the TGI with OVCAR-3 ovarian, in the assay with MOLT-4 leukemia, with U251 CNS, with OVCAR-8 ovarian, with CAKI-1 renal and with HCC-2998 colon was more than 100 µM in each case. Also, the TGI with OVCAR-4 ovarian, in the assay with NCI-H522 lung and in the assay with UO-31 renal was more than 100 µM in each case.
For `COC1CC(O)C(OC(=O)c2ccccc2)C(C)O1` (stereo unspecified), the TGI with OVCAR-3 ovarian, in the assay on MOLT-4 leukemia, in the assay on U251 CNS, in the assay with OVCAR-8 ovarian, with CAKI-1 renal and in the assay with HCC-2998 colon was more than 100 µM each time. Also, the TGI in the assay on OVCAR-4 ovarian and in the assay on NCI-H522 lung was more than 100 µM in each case.
As for `N#CC(C(=O)CCCC(=O)Nc1ccc(Cl)cc1Cl)c1ccccc1` (stereo unspecified), the TGI in the assay with OVCAR-3 ovarian, in the assay with MOLT-4 leukemia, in the assay on U251 CNS, with OVCAR-8 ovarian, in the assay with CAKI-1 renal and with HCC-2998 colon was more than 100 µM each time. In addition, the TGI in the assay with OVCAR-4 ovarian and in the assay on UO-31 renal was more than 100 µM throughout.
